This experiment concerns human tau-P301L-transfected mice brains. The experiment can be described thus: human tau-P301L-transfected mice treated via mini-osmotic pumps, immunohistochemistry of the hippocampus. The format is in vivo, C57BL/6 mice. As for the experimental part:
All protocols for animal experiments described in this study were performed according to the German laws for animal experimentation (Tierschutzgesetz) from 1998. The study was approved by the authorities of the State of Saxony-Anhalt (Landesverwaltungsamt) and performed according to institutional guidelines. Animals were maintained under constant environmental conditions with ambient temperature of 20 ± 2 °C and relative humidity of 50%. They were housed with a 12 hour light-dark cycle and given food and water ad libitum. Adult wild-type C57BL/6 mice (10 weeks old) obtained from Charles River Laboratories (Sulzfeld, Germany) were used for all studies. 4% halothane in a mixture of nitrous oxide/oxygen (ratio 70:30) was used for the induction of anesthesia and 1 to 1.5% halothane for the maintenance of anesthesia. Halothane was applied via a nose cone. Throughout all surgical procedures, the animal's body temperature was kept at 37°C using a thermostatically controlled heating blanket. Intracerebral injection of viral particles into the hippocampus of the right brain hemisphere of anesthetized mice was performed stereotactically at coordinates 2.6 mm posterior to bregma, lateral 1.0 mm and ventral 2.0 mm. 2 µl of high titer viral suspension were injected with a fixed syringe (Hamilton Company, Reno, NV, USA). After injection at a rate of 0.2 µl/min, the cannula was left in place for further 30 sec before slow withdrawal. After surgery, the wound was sutured.
Mini-osmotic pumps (Model 2006, Alzet, Palo Alto, CA, USA) were implanted intraperitoneal (ip) through a midline incision immediately after P301L transfection. During implantation, animals remained under halothane anesthesia (details above). The pumps (internal volume: 245.6 µl) were loaded with one of the following substances: P5SA-2, P5SA-3, P5SA-4, P5SA-5 or corresponding vehicle solution (DMSO/polyethylene glycol 400 (50:50 w/w) without drug. P5SA (final concentration 1 mg/kg/day) or vehicle infusion (ip) started immediately after transplantation with a continuous flow rate of 0.15 µl/h and was maintained for 6 weeks.
6 weeks after P301L transfection, mice were anesthetized by ip injection of 4% chloral hydrate in PBS, transcardially perfused with ice-cold PBS and fixed with 4% paraformaldehyde in 0.1 M PBS. Immediately after fixation, animals were decapitated. The brains were removed and post-fixed in the same fixative overnight. Fixed brains were placed in a mouse brain matrix (Activational Systems Inc., Warren, USA) and transected into defined coronal brain slices (thickness 1 mm) along the anterior-posterior axis. After incubation in 30% sucrose containing PBS for cryoprotection, 20 µm-thick frontal sections, comprising the hippocampal formation, were cut using a cryostat (Microm International GmbH, Walldorf, Germany). For immunohistochemical staining, sections were washed in 0.1 M PBS. Free-floating sections were permeabilized with 0.2% Triton X-100 in PBS containing 10% normal horse serum for 30 min. After washing with PBS, unspecific antibody binding was blocked by 10% normal horse serum for 30 min, followed by a further wash in 0.1 M PBS. Then, sections were incubated with primary antibodies. For immunofluorescence staining, primary antibodies directed against total tau (human plus endogenous mice tau, K9JA) and MAP2 (microtubule-associated protein 2), respectively, were applied simultaneously. Alternatively, the primary antibodies AT8 (human phospho-tau, AT8 (Ser202/Thr205) phosphorylation site) and the human tau-specific primary antibody tau-13 were used individually. After overnight incubation at 4°C, sections were rinsed with 0.1 M PBS. Sections exposed to the primary antibody combination K9JA/MAP2 were incubated with the complementary secondary antibodies goat anti-rabbit IgG Alexa Fluor 488 and goat anti-mouse IgG Alexa Fluor 594. AT8 and tau-13 were visualized with goat anti-mouse IgG Alexa Fluor 594. […]

The mark [1] stands for this setting: 1 mg/kg/day, continuous ip infusion for 6 weeks.

With `COc1ccc(-c2nc(Cc3ccc(Cl)cc3)no2)cc1OC` [P5SA-2], under setting [1], the “phosphorylation of human tau-P301L at its AT8 epitope (Ser202/Thr205)” value (“phosphorylation … (Ser202/Thr205)” below) was “diminished” and the “tau-P301L-dependent pattern of neuronal degeneration in the hippocampal formation” value (“tau-P301L-dependent pattern” below) is “not observed”.

Take `CN1CCc2c(sc(-n3cccc3)c2CNC(=O)NC23CC4CC(CC(C4)C2)C3)C1` [P5SA-3]: under setting [1], the “phosphorylation … (Ser202/Thr205)” value is listed as “diminished” and the “tau-P301L-dependent pattern” value is given as “not observed”.

On to `O=c1cc2nc(-c3ccc(F)cc3)nc(SCc3ccc(Br)cc3)n2[nH]1` [P5SA-4], for which, under setting [1], the “phosphorylation … (Ser202/Thr205)” value is given as “diminished” and the “tau-P301L-dependent pattern” value is reported as “not observed”.

Turning to `CNC(=O)c1c(NC(=O)COCC(=O)Nc2sc3c(c2C(=O)NC)CCC3)sc2c1CCC2` [P5SA-5], the “numbers of AT8-positive perikarya of CA3 pyramidal neurons per hippocampal slice” value (1 mg/kg/day ip for 6 weeks, mean ± SEM, vehicle 7.0 ± 2.0, P< 0.0001) is 2.2 ± 1.4. Moreover, under setting [1], the “phosphorylation … (Ser202/Thr205)” value is reported as “remarkably reduced”; the “tau-P301L-dependent localization of total tau signals in the perikarya of CA1 and CA3 pyramidal neurons” value is “remained unaffected”; the “tau-P301L-dependent pattern” value was “decreased”.

The values above are taken from patent EP2878677A1, “Activators of protein phosphatase 5” (Deutsches Zentrum für Neurodegenerative Erkrankungen e.V. …, priority 2013, dated 2015).
